Tested on: not listed separately
Assay: DRUGMATRIX: Phosphodiesterase PDE4 enzyme inhibition (substrate: [3H]cAMP + cAMP)
Details: u-937; Not Active = under 50% inhibition at 10 µM

Row | Structure (SMILES) | IC50 | Ki
1 | COC(=O)[C@H](c1ccccc1Cl)N1CCc2sccc2C1 [CLOPIDOGREL] | Not Active | Not Active
2 | Brc1ccccc1 [BROMOBENZENE] | Not Active | Not Active
3 | CC(C)NC[C@H](O)COc1cccc2[nH]ccc12 | Not Active | Not Active
4 | CCCSc1ccc2nc(NC(=O)OC)[nH]c2c1 [ALBENDAZOLE] | Not Active | Not Active

Target: Melanocortin receptor 3 (Homo sapiens, UniProt P41968); also: in other assays of this panel Not Active means under 50% inhibition at 10 µM
Sequence (P41968 whole entry): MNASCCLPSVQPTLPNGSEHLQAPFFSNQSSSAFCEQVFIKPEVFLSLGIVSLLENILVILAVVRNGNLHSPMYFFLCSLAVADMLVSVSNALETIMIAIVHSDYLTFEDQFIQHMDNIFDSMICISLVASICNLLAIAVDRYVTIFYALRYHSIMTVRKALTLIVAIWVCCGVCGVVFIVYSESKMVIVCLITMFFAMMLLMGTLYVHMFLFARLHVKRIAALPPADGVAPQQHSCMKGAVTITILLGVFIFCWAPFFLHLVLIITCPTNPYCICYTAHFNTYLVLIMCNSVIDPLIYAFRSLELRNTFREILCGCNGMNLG
Assay: not given
Type: cell membranes, Membrane
Details: hek293

Row | Structure (SMILES) | IC50
5 | COC(=O)[C@H](c1ccccc1Cl)N1CCc2sccc2C1 [CLOPIDOGREL] | Not Active
6 | Brc1ccccc1 [BROMOBENZENE] | Not Active
7 | CC(C)NC[C@H](O)COc1cccc2[nH]ccc12 | Not Active
8 | CCCSc1ccc2nc(NC(=O)OC)[nH]c2c1 [ALBENDAZOLE] | Not Active

Target: Mitogen-activated protein kinase 1 (Homo sapiens, UniProt P28482)
Sequence (P28482 whole entry): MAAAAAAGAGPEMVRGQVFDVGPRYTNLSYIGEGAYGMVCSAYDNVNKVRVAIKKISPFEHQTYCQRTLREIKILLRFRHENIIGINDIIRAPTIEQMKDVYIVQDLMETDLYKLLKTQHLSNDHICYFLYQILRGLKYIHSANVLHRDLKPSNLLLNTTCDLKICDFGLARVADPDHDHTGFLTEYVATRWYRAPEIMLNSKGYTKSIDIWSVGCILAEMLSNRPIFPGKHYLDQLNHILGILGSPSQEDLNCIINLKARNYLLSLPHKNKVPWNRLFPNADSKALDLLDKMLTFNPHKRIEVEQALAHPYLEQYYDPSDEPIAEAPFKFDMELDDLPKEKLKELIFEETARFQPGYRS
Assay: DRUGMATRIX: Protein Serine/Threonine Kinase, ERK2 enzyme inhibition (substrate: Myelin Basic Protein)
Set-up: species or system Escherichia coli
Details: Not Active = under 50% inhibition at 10 µM

Row | Structure (SMILES) | IC50
9 | COC(=O)[C@H](c1ccccc1Cl)N1CCc2sccc2C1 [CLOPIDOGREL] | Not Active
10 | Brc1ccccc1 [BROMOBENZENE] | Not Active
11 | CC(C)NC[C@H](O)COc1cccc2[nH]ccc12 | Not Active
12 | CCCSc1ccc2nc(NC(=O)OC)[nH]c2c1 [ALBENDAZOLE] | Not Active

Target: T1, Alpha-1D adrenergic receptor (Homo sapiens, UniProt P25100); also: in other assays of this panel Not Active means under 50% inhibition at 10 µM
T1 sequence (P25100 whole entry): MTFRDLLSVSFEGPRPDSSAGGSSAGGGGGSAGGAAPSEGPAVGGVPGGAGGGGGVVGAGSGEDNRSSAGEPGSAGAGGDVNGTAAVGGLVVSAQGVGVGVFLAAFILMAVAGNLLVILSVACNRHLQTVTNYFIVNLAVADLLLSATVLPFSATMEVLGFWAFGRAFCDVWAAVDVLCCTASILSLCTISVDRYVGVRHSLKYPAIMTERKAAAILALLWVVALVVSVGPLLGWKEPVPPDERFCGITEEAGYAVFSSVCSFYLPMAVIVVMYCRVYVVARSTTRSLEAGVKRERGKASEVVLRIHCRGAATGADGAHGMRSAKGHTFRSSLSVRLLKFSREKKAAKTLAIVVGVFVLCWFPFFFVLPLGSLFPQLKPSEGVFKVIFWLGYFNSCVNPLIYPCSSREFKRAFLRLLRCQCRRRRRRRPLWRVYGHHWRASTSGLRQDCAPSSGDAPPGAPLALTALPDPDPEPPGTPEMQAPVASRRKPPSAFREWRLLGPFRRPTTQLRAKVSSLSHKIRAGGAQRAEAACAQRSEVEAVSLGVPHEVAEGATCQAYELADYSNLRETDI
Assay: not given
Type: cell membranes, HEK293, Membrane
Details: hek293

Row | Structure (SMILES) | IC50
13 | COC(=O)[C@H](c1ccccc1Cl)N1CCc2sccc2C1 [CLOPIDOGREL] | Not Active
14 | Brc1ccccc1 [BROMOBENZENE] | Not Active
15 | CC(C)NC[C@H](O)COc1cccc2[nH]ccc12 | Not Active
16 | CCCSc1ccc2nc(NC(=O)OC)[nH]c2c1 [ALBENDAZOLE] | Not Active

Target: Prostaglandin G/H synthase 1 (Homo sapiens, UniProt P23219);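 also: inhibition of COX-1 enzyme activity, with arachidonic acid supplied as substrate; in other assays of this panel Not Active means under 50% inhibition at 10 µM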
Sequence (P23219 whole entry): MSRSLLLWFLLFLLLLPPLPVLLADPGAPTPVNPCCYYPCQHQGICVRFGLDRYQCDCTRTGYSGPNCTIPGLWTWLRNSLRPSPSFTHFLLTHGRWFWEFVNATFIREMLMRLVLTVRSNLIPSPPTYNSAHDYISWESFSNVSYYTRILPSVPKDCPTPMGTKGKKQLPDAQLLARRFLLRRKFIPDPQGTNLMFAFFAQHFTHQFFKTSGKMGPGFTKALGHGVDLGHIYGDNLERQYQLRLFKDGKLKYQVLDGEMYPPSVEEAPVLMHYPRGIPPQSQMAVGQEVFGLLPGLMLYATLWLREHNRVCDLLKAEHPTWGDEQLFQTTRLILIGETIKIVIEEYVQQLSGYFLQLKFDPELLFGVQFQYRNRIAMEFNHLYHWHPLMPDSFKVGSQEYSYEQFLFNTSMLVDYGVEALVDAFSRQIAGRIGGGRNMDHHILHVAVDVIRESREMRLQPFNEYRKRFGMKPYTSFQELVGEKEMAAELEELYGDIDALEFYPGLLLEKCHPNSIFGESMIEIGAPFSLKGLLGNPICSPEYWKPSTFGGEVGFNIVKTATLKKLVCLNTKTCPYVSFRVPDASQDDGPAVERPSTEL
Assay: biochemical
Type: tissue-based, Platelet
Details: platelet

Row | Structure (SMILES) | IC50
17 | COC(=O)[C@H](c1ccccc1Cl)N1CCc2sccc2C1 [CLOPIDOGREL] | Not Active
18 | Brc1ccccc1 [BROMOBENZENE] | Not Active
19 | CC(C)NC[C@H](O)COc1cccc2[nH]ccc12 | Not Active
20 | CCCSc1ccc2nc(NC(=O)OC)[nH]c2c1 [ALBENDAZOLE] | Not Active

Target: T2, 3-hydroxy-3-methylglutaryl-coenzyme A reductase (Homo sapiens, UniProt P04035);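 also: enzyme inhibition assay of HMG-CoA reductase using radiolabeled [14C]HMG-CoA as substrate; in other assays of this panel Not Active means under 50% inhibition at 10 µM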
T2 sequence (P04035 whole entry): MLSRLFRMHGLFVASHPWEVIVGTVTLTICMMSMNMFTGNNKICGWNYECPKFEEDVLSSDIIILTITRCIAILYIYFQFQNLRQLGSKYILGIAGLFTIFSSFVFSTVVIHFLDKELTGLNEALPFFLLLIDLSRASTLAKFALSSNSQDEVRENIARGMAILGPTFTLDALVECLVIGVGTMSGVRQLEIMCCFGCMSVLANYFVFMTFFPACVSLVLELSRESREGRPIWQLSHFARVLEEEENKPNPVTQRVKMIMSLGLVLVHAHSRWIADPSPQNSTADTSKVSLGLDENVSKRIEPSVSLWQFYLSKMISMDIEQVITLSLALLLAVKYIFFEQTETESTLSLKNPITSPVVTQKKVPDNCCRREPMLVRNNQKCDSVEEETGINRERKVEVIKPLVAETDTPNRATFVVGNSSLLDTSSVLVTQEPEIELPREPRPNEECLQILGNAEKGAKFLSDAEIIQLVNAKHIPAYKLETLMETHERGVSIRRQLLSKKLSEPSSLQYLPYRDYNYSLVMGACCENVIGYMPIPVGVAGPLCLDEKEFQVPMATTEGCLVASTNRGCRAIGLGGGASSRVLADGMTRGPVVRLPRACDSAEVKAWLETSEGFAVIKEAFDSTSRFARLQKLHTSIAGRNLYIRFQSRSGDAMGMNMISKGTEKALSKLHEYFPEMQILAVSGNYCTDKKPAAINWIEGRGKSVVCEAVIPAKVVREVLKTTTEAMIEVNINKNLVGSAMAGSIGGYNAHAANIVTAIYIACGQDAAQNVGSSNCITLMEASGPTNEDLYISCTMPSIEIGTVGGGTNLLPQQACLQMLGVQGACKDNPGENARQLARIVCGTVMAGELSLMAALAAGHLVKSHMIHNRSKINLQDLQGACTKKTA
Assay: not given
Set-up: species or system Escherichia coli
Details: not given

Row | Structure (SMILES) | IC50
21 | COC(=O)[C@H](c1ccccc1Cl)N1CCc2sccc2C1 [CLOPIDOGREL] | Not Active
22 | Brc1ccccc1 [BROMOBENZENE] | Not Active
23 | CC(C)NC[C@H](O)COc1cccc2[nH]ccc12 | Not Active
24 | CCCSc1ccc2nc(NC(=O)OC)[nH]c2c1 [ALBENDAZOLE] | Not Active

Tested on: not listed separately
Assay: DRUGMATRIX: Glutamate, NMDA, Phencyclidine radioligand binding (ligand: [3H] TCP)
Type: cell membranes, Rattus norvegicus, Wistar, Cerebral cortex, Membrane
Details: Not Active = under 50% inhibition at 10 µM

Row | Structure (SMILES) | IC50 | Ki
25 | COC(=O)[C@H](c1ccccc1Cl)N1CCc2sccc2C1 [CLOPIDOGREL] | Not Active | Not Active
26 | Brc1ccccc1 [BROMOBENZENE] | Not Active | Not Active
27 | CC(C)NC[C@H](O)COc1cccc2[nH]ccc12 | Not Active | Not Active
28 | CCCSc1ccc2nc(NC(=O)OC)[nH]c2c1 [ALBENDAZOLE] | Not Active | Not Active

Target: D(3) dopamine receptor (Homo sapiens, UniProt P35462)
Sequence (P35462 whole entry): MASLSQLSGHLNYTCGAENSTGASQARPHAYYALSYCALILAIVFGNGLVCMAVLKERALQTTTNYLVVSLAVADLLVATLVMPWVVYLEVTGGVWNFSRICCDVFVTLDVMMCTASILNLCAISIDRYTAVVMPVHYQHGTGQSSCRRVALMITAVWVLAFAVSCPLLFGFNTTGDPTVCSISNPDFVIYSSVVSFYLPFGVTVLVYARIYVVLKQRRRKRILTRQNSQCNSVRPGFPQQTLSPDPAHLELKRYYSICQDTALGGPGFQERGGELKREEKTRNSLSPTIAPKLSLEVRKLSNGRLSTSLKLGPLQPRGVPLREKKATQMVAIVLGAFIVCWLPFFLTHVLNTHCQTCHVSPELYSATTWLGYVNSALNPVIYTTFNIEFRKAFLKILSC
Assay: DRUGMATRIX: Dopamine D3 radioligand binding (ligand: [3H] Spiperone)
Type: cell membranes, CHO, Membrane
Details: cho

Row | Structure (SMILES) | IC50
29 | COC(=O)[C@H](c1ccccc1Cl)N1CCc2sccc2C1 [CLOPIDOGREL] | Not Active
30 | Brc1ccccc1 [BROMOBENZENE] | Not Active
31 | CC(C)NC[C@H](O)COc1cccc2[nH]ccc12 | Not Active
32 | CCCSc1ccc2nc(NC(=O)OC)[nH]c2c1 [ALBENDAZOLE] | Not Active

Target: Platelet-activating factor receptor (Homo sapiens, UniProt P25105); also: in other assays of this panel Not Active means under 50% inhibition at 10 µM
Sequence (P25105 whole entry): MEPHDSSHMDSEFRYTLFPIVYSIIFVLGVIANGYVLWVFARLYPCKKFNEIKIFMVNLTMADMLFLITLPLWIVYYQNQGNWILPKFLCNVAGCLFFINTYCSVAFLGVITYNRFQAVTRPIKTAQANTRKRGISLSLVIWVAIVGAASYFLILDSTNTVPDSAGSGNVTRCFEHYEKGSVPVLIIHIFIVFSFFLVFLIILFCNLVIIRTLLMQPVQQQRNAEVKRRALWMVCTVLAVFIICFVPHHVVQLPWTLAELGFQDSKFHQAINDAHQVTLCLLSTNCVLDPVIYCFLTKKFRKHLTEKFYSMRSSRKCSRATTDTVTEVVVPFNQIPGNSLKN
Assay: biochemical
Type: tissue-based
Details: platelet

Row | Structure (SMILES) | IC50
33 | COC(=O)[C@H](c1ccccc1Cl)N1CCc2sccc2C1 [CLOPIDOGREL] | Not Active
34 | Brc1ccccc1 [BROMOBENZENE] | Not Active
35 | CC(C)NC[C@H](O)COc1cccc2[nH]ccc12 | Not Active
36 | CCCSc1ccc2nc(NC(=O)OC)[nH]c2c1 [ALBENDAZOLE] | Not Active

Tested on: not listed separately
Assay: DRUGMATRIX: Glutamate, NMDA, Agonism radioligand binding (ligand: [3H] CGP-39653)
Type: cell membranes, Rattus norvegicus, Wistar, Cerebral cortex, Membrane
Details: Not Active = under 50% inhibition at 10 µM

Row | Structure (SMILES) | IC50 | Ki
37 | COC(=O)[C@H](c1ccccc1Cl)N1CCc2sccc2C1 [CLOPIDOGREL] | Not Active | Not Active
38 | Brc1ccccc1 [BROMOBENZENE] | Not Active | Not Active
39 | CC(C)NC[C@H](O)COc1cccc2[nH]ccc12 | Not Active | Not Active
40 | CCCSc1ccc2nc(NC(=O)OC)[nH]c2c1 [ALBENDAZOLE] | Not Active | Not Active

Target: T3, Adenosine receptor A1 (Homo sapiens, UniProt P30542)
T3 sequence (P30542 whole entry): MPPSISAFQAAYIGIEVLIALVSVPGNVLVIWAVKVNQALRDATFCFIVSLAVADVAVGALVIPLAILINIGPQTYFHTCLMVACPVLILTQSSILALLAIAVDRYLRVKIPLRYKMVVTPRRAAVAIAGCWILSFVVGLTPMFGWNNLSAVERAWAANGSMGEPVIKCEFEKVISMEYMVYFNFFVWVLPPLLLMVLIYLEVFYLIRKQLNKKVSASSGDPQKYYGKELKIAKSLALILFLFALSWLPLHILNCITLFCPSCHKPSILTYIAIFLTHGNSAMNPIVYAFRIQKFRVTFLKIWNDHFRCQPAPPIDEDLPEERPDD
Assay: not given
Type: cell membranes, CHO, Membrane
Details: cho

Row | Structure (SMILES) | IC50
41 | COC(=O)[C@H](c1ccccc1Cl)N1CCc2sccc2C1 [CLOPIDOGREL] | Not Active
42 | Brc1ccccc1 [BROMOBENZENE] | Not Active
43 | CC(C)NC[C@H](O)COc1cccc2[nH]ccc12 | Not Active
44 | CCCSc1ccc2nc(NC(=O)OC)[nH]c2c1 [ALBENDAZOLE] | Not Active

Target: T4, Interstitial collagenase (Homo sapiens, UniProt P03956)
T4 sequence (P03956 whole entry): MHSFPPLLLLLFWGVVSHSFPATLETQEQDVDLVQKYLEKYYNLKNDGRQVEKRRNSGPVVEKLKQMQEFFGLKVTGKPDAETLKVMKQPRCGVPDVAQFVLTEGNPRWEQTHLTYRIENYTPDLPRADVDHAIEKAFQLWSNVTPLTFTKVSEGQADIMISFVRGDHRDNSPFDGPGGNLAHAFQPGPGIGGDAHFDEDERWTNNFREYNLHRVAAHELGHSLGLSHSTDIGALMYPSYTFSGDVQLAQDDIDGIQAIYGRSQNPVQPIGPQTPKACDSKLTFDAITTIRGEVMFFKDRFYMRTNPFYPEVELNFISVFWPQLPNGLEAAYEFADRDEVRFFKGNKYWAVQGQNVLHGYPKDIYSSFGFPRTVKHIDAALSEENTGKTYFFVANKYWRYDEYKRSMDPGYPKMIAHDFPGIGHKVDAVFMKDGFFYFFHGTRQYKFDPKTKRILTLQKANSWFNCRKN
Assay: not given
Type: tissue-based, Rheumatoid synovial fibroblasts
Details: not given

Row | Structure (SMILES) | IC50
45 | COC(=O)[C@H](c1ccccc1Cl)N1CCc2sccc2C1 [CLOPIDOGREL] | Not Active
46 | Brc1ccccc1 [BROMOBENZENE] | Not Active
47 | CC(C)NC[C@H](O)COc1cccc2[nH]ccc12 | Not Active
48 | CCCSc1ccc2nc(NC(=O)OC)[nH]c2c1 [ALBENDAZOLE] | Not Active

Tested on: not listed separately
Assay: DRUGMATRIX: Calcium Channel Type L, Phenylalkylamine radioligand binding (ligand: [3H] (-)-Desmethoxyverapamil (D-888))
Type: cell membranes, Rattus norvegicus, Wistar, Brain, Membrane
Details: Not Active = under 50% inhibition at 10 µM

Row | Structure (SMILES) | IC50 | Ki
49 | COC(=O)[C@H](c1ccccc1Cl)N1CCc2sccc2C1 [CLOPIDOGREL] | Not Active | Not Active
50 | Brc1ccccc1 [BROMOBENZENE] | Not Active | Not Active
51 | CC(C)NC[C@H](O)COc1cccc2[nH]ccc12 | Not Active | Not Active
52 | CCCSc1ccc2nc(NC(=O)OC)[nH]c2c1 [ALBENDAZOLE] | Not Active | Not Active

Source: ChEMBL document CHEMBL1909046, “DrugMatrix in vitro pharmacology data”
